From patent publication US9399133B2, “Non-invasive automated electrical control systems and methods for monitoring animal conditions” (Rhode Island Board of Education, State of Rhode Island and …, priority 2012, dated 2016)

System: status epilepticus (SE) induced by lithium-pilocarpine (LP)
Assay: Status epilepticus induced by lithium-pilocarpine in rats receiving TFS, alone and combined with subeffective doses of diazepam
Format: in vivo
From the text: This study was designed to evaluate status epilepticus (SE) induced by lithium-pilocarpine (LP) in rats receiving TFS, alone and combined with subeffective doses of diazepam, an antiepileptic drug that belongs to the group of benzodiazepines. Diazepam is currently considered one of the drugs of choice to stop SE.

[1] = LP+TFS+DZP group compared with LP, LP+DZP and LP+TFS groups, p<0.001

With `CN1C(=O)CN=C(c2ccccc2)c2cc(Cl)ccc21` [diazepam] the “latency to mild generalized seizure” value [1] was “significantly increased”, the “latency to the establishment of the SE” value [1] was “significantly increased” and the “latency to the first forelimb clonus” value [1] was “significantly increased”. The “total protection against LP-induced seizures and SE, animals” value (subeffective dose of diazepam combined with TFS (LP+TFS+DZP group), p<0.0001 vs LP, p<0.003 vs LP+DZP) was 62%, the “latency and incidence of LP-induced behavioral alterations” value (subeffective doses of diazepam administered prior to the pilocarpine, without TFS, in comparison to the LP group) was “Non-significant changes” and the “rats presenting seizures and SE” value (subeffective doses of diazepam prior to pilocarpine, without TFS (LP+DZP group)) was “All rats presented seizures and SE”.
